# ChEMBL document CHEMBL1201862, “PubChem BioAssay data set” (2004)
#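 Test compounds were applied to cells in 96-well plates for 48 hours at 5 doses. GI50 = concentration required for 50% inhibition of growth.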 The source made the active and inactive calls. No stated cut-off is given here; in the data, active = GI50 up to about 1.1 µM and inactive = higher.
# Legend:
# Experiment in all cases: NCI-60 cell line screen, 48 h
# CCRF-CEM = test system: CCRF-CEM
# UACC-257 = test system: UACC-257
# 786-0 = test system: 786-0
# DU-145 = test system: DU-145
# PC-3 = test system: PC-3
# SK-MEL-28 = test system: SK-MEL-28
# RXF 393 = test system: RXF 393
# Hs-578T = test system: Hs-578T
# HOP-62 = test system: HOP-62
# RPMI-8226 = test system: RPMI-8226
# A549 = test system: A549
# OVCAR-4 = test system: OVCAR-4
# OVCAR-3 = test system: OVCAR-3
# UO-31 = test system: UO-31
# HT-29 = test system: HT-29
# SF-539 = test system: SF-539
# SF-268 = test system: SF-268
# MDA-MB-231 = test system: MDA-MB-231
# MDA-MB-435 = test system: MDA-MB-435
# K562 = test system: K562
SMILES,GI50 (CCRF-CEM),GI50 (UACC-257),GI50 (786-0),GI50 (DU-145),GI50 (PC-3),GI50 (SK-MEL-28),GI50 (RXF 393),GI50 (Hs-578T),GI50 (HOP-62),GI50 (RPMI-8226),GI50 (A549),GI50 (OVCAR-4),GI50 (OVCAR-3),GI50 (UO-31),GI50 (HT-29),GI50 (SF-539),GI50 (SF-268),GI50 (MDA-MB-231),GI50 (MDA-MB-435),GI50 (K562)
CCOC(=O)C1=C(C)N(Cc2ccccc2)C2(O)C(OC)CC(=O)C3C(=O)N(c4ccccc4)C(=O)C132 (stereo not given),3.91 µM (inactive),15.5 µM (inactive),8.07 µM (inactive),3.9 µM (inactive),7.73 µM (inactive),7.33 µM (inactive),5.69 µM (inactive),83.4 µM (inactive),6.81 µM (inactive),2.69 µM (inactive),7.74 µM (inactive),4.84 µM (inactive),7.41 µM (inactive),13.3 µM (inactive),4.9 µM (inactive),15 µM (inactive),9.33 µM (inactive),13.5 µM (inactive),5.05 µM (inactive),4.43 µM (inactive)
CN(C)CCNC(=O)c1cccc2ccc(-c3ccc(O)cc3)nc12,1.35 µM (inactive),2.61 µM (inactive),2.63 µM (inactive),2.33 µM (inactive),2.37 µM (inactive),3.15 µM (inactive),4.72 µM (inactive),2.66 µM (inactive),1.47 µM (inactive),2.39 µM (inactive),0.92 µM (active),2.43 µM (inactive),3.13 µM (inactive),2.39 µM (inactive),3.13 µM (inactive),2.75 µM (inactive),3.92 µM (inactive),0.959 µM (active),3.74 µM (inactive),0.839 µM (active)
CNc1ncnc2c1cnn2CCCCO,> 100 µM (inactive),> 100 µM (inactive),> 100 µM (inactive),> 100 µM (inactive),> 100 µM (inactive),> 100 µM (inactive),> 100 µM (inactive),> 100 µM (inactive),> 100 µM (inactive),> 100 µM (inactive),> 100 µM (inactive),> 100 µM (inactive),> 100 µM (inactive),> 100 µM (inactive),> 100 µM (inactive),> 100 µM (inactive),> 100 µM (inactive),> 100 µM (inactive),> 100 µM (inactive),> 100 µM (inactive)
COc1ccc(/C=C/c2nsc(/C=C/c3ccc(OC)cc3)n2)cc1,19.3 µM (inactive),41.4 µM (inactive),21.8 µM (inactive),> 100 µM (inactive),48.5 µM (inactive),> 100 µM (inactive),> 100 µM (inactive),> 100 µM (inactive),> 100 µM (inactive),28.7 µM (inactive),> 100 µM (inactive),> 100 µM (inactive),> 100 µM (inactive),> 100 µM (inactive),36.5 µM (inactive),> 100 µM (inactive),> 100 µM (inactive),> 100 µM (inactive),85.1 µM (inactive),33.3 µM (inactive)
O=C(O)CNc1ncc2c(n1)-c1ccccc1OC2,> 100 µM (inactive),> 100 µM (inactive),> 100 µM (inactive),> 100 µM (inactive),> 100 µM (inactive),> 100 µM (inactive),> 100 µM (inactive),> 100 µM (inactive),> 100 µM (inactive),> 100 µM (inactive),> 100 µM (inactive),> 100 µM (inactive),> 100 µM (inactive),> 100 µM (inactive),> 100 µM (inactive),> 100 µM (inactive),> 100 µM (inactive),> 100 µM (inactive),> 100 µM (inactive),> 100 µM (inactive)
COc1ccc(N2C(=O)[C@H]3[C@H]4CC(C(C)(C)C)CC[C@H]4c4c(n(C)c5ccccc45)[C@H]3C2=O)cc1 (stereo not given in full),> 100 µM (inactive),> 100 µM (inactive),> 100 µM (inactive),> 100 µM (inactive),> 100 µM (inactive),> 100 µM (inactive),> 23.7 µM (inactive),56.1 µM (inactive),> 5.62 µM (inactive),> 100 µM (inactive),> 100 µM (inactive),> 79.6 µM (inactive),> 100 µM (inactive),> 100 µM (inactive),> 100 µM (inactive),32.4 µM (inactive),> 100 µM (inactive),> 100 µM (inactive),> 100 µM (inactive),> 95.3 µM (inactive)
CCCS(=O)OC1C(C2COC(C)(C)O2)OC2OC(C)(C)OC21 (stereo not given),3.15 µM (inactive),13.6 µM (inactive),13.2 µM (inactive),20.2 µM (inactive),2.87 µM (inactive),14.5 µM (inactive),9.59 µM (inactive),4.46 µM (inactive),13.6 µM (inactive),2.88 µM (inactive),20.9 µM (inactive),15.2 µM (inactive),15.1 µM (inactive),15 µM (inactive),3.89 µM (inactive),10.3 µM (inactive),17.9 µM (inactive),13.1 µM (inactive),6.31 µM (inactive),5.65 µM (inactive)
c1cc(C2=NCCO2)c2ccsc2c1,> 100 µM (inactive),> 100 µM (inactive),> 100 µM (inactive),> 100 µM (inactive),> 100 µM (inactive),> 100 µM (inactive),> 100 µM (inactive),22.7 µM (inactive),> 100 µM (inactive),> 100 µM (inactive),> 100 µM (inactive),> 100 µM (inactive),> 100 µM (inactive),> 100 µM (inactive),> 100 µM (inactive),> 100 µM (inactive),> 100 µM (inactive),> 100 µM (inactive),> 100 µM (inactive),> 100 µM (inactive)
COC1(C)CCC(OS(C)(=O)=O)CO1 (stereo not given),> 100 µM (inactive),> 100 µM (inactive),> 100 µM (inactive),> 100 µM (inactive),> 100 µM (inactive),> 100 µM (inactive),> 100 µM (inactive),> 100 µM (inactive),> 100 µM (inactive),> 100 µM (inactive),> 100 µM (inactive),> 100 µM (inactive),> 100 µM (inactive),> 100 µM (inactive),> 100 µM (inactive),> 100 µM (inactive),> 100 µM (inactive),> 100 µM (inactive),> 100 µM (inactive),> 100 µM (inactive)
COc1cc(-c2nc3ccccn3c2/N=C/c2cc(Br)cc(Br)c2O)ccc1O,17.7 µM (inactive),27.1 µM (inactive),18 µM (inactive),27.6 µM (inactive),22.6 µM (inactive),16.6 µM (inactive),32.9 µM (inactive),26.1 µM (inactive),21.6 µM (inactive),24.7 µM (inactive),> 100 µM (inactive),19.4 µM (inactive),15.6 µM (inactive),13.7 µM (inactive),22.3 µM (inactive),27.4 µM (inactive),14.3 µM (inactive),15.6 µM (inactive),22.4 µM (inactive),28.6 µM (inactive)
CN(C)c1nc(N(C)C)nc(N(C)C)n1 [ALTRETAMINE],> 147 µM (inactive),> 150 µM (inactive),> 150 µM (inactive),> 150 µM (inactive),> 150 µM (inactive),> 150 µM (inactive),> 150 µM (inactive),> 150 µM (inactive),139 µM (inactive),> 143 µM (inactive),> 147 µM (inactive),> 143 µM (inactive),142 µM (inactive),> 147 µM (inactive),> 150 µM (inactive),> 143 µM (inactive),> 150 µM (inactive),> 150 µM (inactive),> 150 µM (inactive),> 148 µM (inactive)
C=C1C(O)C23CCC4C(C(=O)O)(C(=O)O)CC(OC5OC(CO)C(O)C(OC(=O)CCc6ccccc6)C5NC(=O)CC(C)C)CC4(C)C2CCC1(O)C3 (stereo not given),> 100 µM (inactive),> 100 µM (inactive),> 100 µM (inactive),> 100 µM (inactive),> 100 µM (inactive),> 100 µM (inactive),> 100 µM (inactive),> 100 µM (inactive),> 100 µM (inactive),> 100 µM (inactive),> 100 µM (inactive),> 100 µM (inactive),> 100 µM (inactive),> 100 µM (inactive),> 100 µM (inactive),> 100 µM (inactive),> 100 µM (inactive),> 100 µM (inactive),> 100 µM (inactive),> 100 µM (inactive)
COc1cc2c(cc1OC)[C@H]1C(=O)c3cc4c(cc3[C@H]1N(C)C2=O)OCO4,0.366 µM (active),6.32 µM (inactive),4.41 µM (inactive),8.43 µM (inactive),9.04 µM (inactive),> 100 µM (inactive),21.8 µM (inactive),> 94.6 µM (inactive),5.07 µM (inactive),4.34 µM (inactive),21.8 µM (inactive),> 100 µM (inactive),19.2 µM (inactive),1.42 µM (inactive),5.27 µM (inactive),3.94 µM (inactive),4.17 µM (inactive),28 µM (inactive),16.6 µM (inactive),0.869 µM (active)
O=C1CC2CCC(C1)[S+]2[O-] (stereo not given),> 100 µM (inactive),> 100 µM (inactive),> 100 µM (inactive),> 100 µM (inactive),> 100 µM (inactive),> 100 µM (inactive),> 100 µM (inactive),> 100 µM (inactive),> 100 µM (inactive),> 100 µM (inactive),> 100 µM (inactive),> 100 µM (inactive),> 100 µM (inactive),> 100 µM (inactive),> 100 µM (inactive),> 100 µM (inactive),> 100 µM (inactive),> 100 µM (inactive),> 100 µM (inactive),> 100 µM (inactive)
